The nature of one data set: in vitro. The conditions noted are these: human, human serum.
In a further data set the test system is DU145 cells. As to the kind of experiment: MTT cell viability. The data set is classed as cell-based, human. The conditions noted are these: DU145 (non-functional p53), 0–100 μM, 48 h.
For another data set, the system named is LNCaP cells. As to the kind of experiment: Propidium iodide flow cytometric cell cycle assay. The data set is classed as cell-based, human. The conditions noted are these: LNCaP cells treated 24 h; propidium iodide flow cytometry.
For data set [1] the following is noted: mice, MCo-PMI 40 mg/kg i.v. daily.
In a further data set the test system is p53 level. It counts as cell-based, human. The conditions noted are these: LNCaP; 50 μM MCo-PMI, 8–48 h; western blot. On the technique in general: A western blot detects proteins with antibodies after separation by electrophoresis.
The next data set relates to caspase-3/7. Kind of data set: Caspase-3/7 assay in LNCaP cells. The conditions noted are these: LNCaP cells treated 30 h. The data set is classed as cell-based, human.
For the next data set, the system named is HdmX level. Kind of data set: Western blot of LNCaP cell extracts. The data set is classed as cell-based, human. The conditions noted are these: 48 h, cyclotides 50 μM.
For a further data set, the system named is PC3 cells. Kind of data set: MTT cell viability. The conditions noted are these: PC3 (non-functional p53), 0–100 μM, 48 h. It counts as cell-based, human.
A further data set concerns HBL100 cells. Kind of data set: MTT cell viability. The conditions noted are these: HBL100 normal breast epithelial cells, 48 h, triplicate.

Broadly, the half-life is how long it takes for the measured level to halve. A high value points to slow decline. Consider `CC[C@H](C)[C@@H]1NC(=O)[C@@H]2CSSC[C@@H]3NC(=O)[C@H](C(C)C)NC(=O)CNC(=O)CNC(=O)[C@H](C)NC(=O)[C@H](CO)NC(=O)[C@H](CC(C)C)NC(=O)[C@H](CC(C)C)NC(=O)[C@H](CC(N)=O)NC(=O)[C@H](Cc4c[nH]c5ccccc45)NC(=O)[C@H](Cc4ccc(O)cc4)NC(=O)[C@H](CCC(=O)O)NC(=O)[C@H](C)NC(=O)[C@H](Cc4ccccc4)NC(=O)[C@H](CO)NC(=O)[C@H]([C@@H](C)O)NC(=O)[C@@H]4CCCN4C(=O)[C@H](C)NC(=O)[C@H](CCCCN)NC(=O)[C@H](CO)NC(=O)[C@H](C)NC(=O)CNC(=O)[C@H](CO)NC(=O)CNC(=O)[C@H](CO)NC(=O)CNC(=O)[C@@H]4CSSC[C@H](NC(=O)[C@H](CC(=O)O)NC(=O)[C@H](CO)NC(=O)[C@H](CC(=O)O)NC(=O)[C@H](CCCNC(=N)N)NC(=O)[C@H](CCCNC(=N)N)NC(=O)[C@H](CSSC[C@H](NC1=O)C(=O)N[C@@H](CCCNC(=N)N)C(=O)NCC(=O)N[C@@H](CC(N)=O)C(=O)NCC(=O)N[C@@H](Cc1ccc(O)cc1)C(=O)N4)NC(=O)[C@H](CCCNC(=N)N)NC(=O)[C@H](CCC(N)=O)NC(=O)[C@H](CC(C)C)NC(=O)[C@H]([C@@H](C)CC)NC(=O)[C@H](CCCCN)NC(=O)[C@@H]1CCCN1C3=O)C(=O)N1CCC[C@H]1C(=O)NCC(=O)N[C@@H](C)C(=O)N2` [MCo-PMI], for which the “Association constant rate to human serum proteins” value is 2400 M⁻¹ s⁻¹ and the “Dissociation constant rate from human serum proteins” value came out at 0.022 s⁻¹. The half-life in “in vitro” is 30 ± 4 h. Besides, the “Effect on cell viability” value with DU145 cells is given as “unaffected”. The “Effect on cell cycle progression” value in the data set on LNCaP cells is reported as “depression of the S-phase fraction”. Also, in data set [1], the “Body weight throughout treatment” value was “maintained healthy weight”; the “Organs and tissues at necropsy” value was “no gross abnormalities”. Also, the “Time of peak p53 level post-treatment” value in the data set on p53 level fell in the range of 36 to 48 h. Besides, the Caspase-3/7 activation result in the data set with caspase-3/7 is given as “dose-dependent caspase-3 activation”. Moreover, the “Effect on intracellular HdmX level” value in the data set on HdmX level is listed as “downregulated”. In the data set on PC3 cells, the “Effect on cell viability” value is “unaffected”.

As for `COc1ccc(C2=N[C@@H](c3ccc(Cl)cc3)[C@@H](c3ccc(Cl)cc3)N2C(=O)N2CCNC(=O)C2)c(OC(C)C)c1` [Nutlin-3, reference compound], the “Effect on cell viability” value with DU145 cells and with PC3 cells was “unaffected” in each case. In the data set with LNCaP cells, the “Effect on cell cycle progression” value is reported as “depression of the S-phase fraction”. For the same molecule, the “EC50, cytotoxicity to non-cancerous cells” value in the data set with HBL100 cells is 33 ± 5 µM.

B1: cyclotide Momordica cochinchinensis trypsin inhibitor-I (natural protein)
chain: cyclo(SGSDGGVCPKILQRCRRDSDCPGACICRGNGYCG)
modifications: disulfide (positions not given here)
B1 came in with a percent bound in the data set with serum proteins (human) of 80%.

These data come from paper PMC3767463 (Journal of the American Chemical Society, 2013).
